# Data as given in US7192977B2, “Benz-indole and benzo-quinoline derivatives as prodrugs for tumor treatment” (School of Pharmacy, priority 2001, dated 2007).
# Marks after values point to notes of the source that are not given here.
# Tested on: Chinese Hamster Ovary (CHO) cell
# Experiment: MTT cytotoxicity in CHO cells of the test compound with and without activation by NADPH-supplemented rat liver microsomes
# Format: cell-based
# Conditions: for IC50: Cricetulus griseus, CHO, cells exposed 24 hours, MTT, mean+sd for three experiments
# Protocol: Test compound activation by CYP enzymes was carried out using NADPH supplemented rat liver microsomes. Incubation mixtures comprised microsomal protein (1 mg/ml), reduced-nicotinamide adenine dinucleotide phosphate (NADPH, 10 mM) and phosphate buffer (pH7.4, 100 mM). Test compound (0.01–100 μM final concentration) in DMSO (20 μl) was added to the microsomal incubation mixtures (0.5 ml) and incubated for 60 min at 37 C. Control incubates contained test compound and microsomal incubation mixture terminated at 0 time. All incubations were terminated by addition of an equal volume of ice-cold acetonitrile and microfuged for 3 min. Aliquots of the supernatant were added to cells in culture and cytotoxicity determined as described below.
# Chinese Hamster Ovary (CHO) cell were grown in MEM supplemented with 10% dialysed FBS and G418 (400 μg/ml). All cells were seeded at an initial density of 1000 cells/well in 96-well-plates, incubation at 37° C. for 24 hours. Aliquots (0.1 ml) of the test compound/microsomal/acetonitrile supernatnant was then added to the CHO cells. Cells were then incubated for 24 hours at 37° C., 5% CO2. After this time period MTT (50 μl; 2 mg/ml stock solution) was added to each well and cells were incubated for a further 4 hours. During this time period MTT, a hydrogen acceptor tetrazolium salt, is reduced to formazan dye by mitochondrial dehydrogenase of viable cells. The media was aspirated from cells and DMSO (100 μl/well) added to solubilise the coloured formazan dye. Absorbance of the formazan dye in the 96-well-plates was then determined at 550 nm. The effect of microsomal activation by the test compound on the arrest of CHO cell growth could be determined by comparing the IC50 (concentration that inhibited cell growth by 50%) with and without microsomal incubation.
structure (smiles),measurement,setting,value
"COc1ccc2[nH]c(C(=O)N3CC(CCl)c4c3ccc3ccccc43)cc2c1 (stereo not drawn) [Compound 1.8, 1-(Chloromethyl)-3-[(5-methoxyindol-2-yl)carbonyl]-1,2-dihydro-3H-benz[e]indole]",IC50,control incubate terminated at 0 time (no microsomal activation),1500 ± 530 nM
same,IC50,supernatant after 60 min incubation with NADPH fortified rat liver microsomes,100 nM
same,"AF (activity factor, ratio of IC50 cytotoxicity values)",ratio of CHO IC50 without and with microsomal activation,15.0*
